In ChEMBL document CHEMBL1156377, “New cytotoxic N-methylated beta-carboline alkaloids from the marine ascidian Eudistoma gilboverde” (J Nat Prod, 2001):
In brackets after ≈: the same amount, converted by molar mass.

Legend:
Type in all cases: functional, cell-based
OVCAR-3 = assay: Cytotoxicity against human OVCAR-3 cells after 2 days; conditions: OVCAR-3, 48 h
COLO 205 = assay: Cytotoxicity against human COLO205 cells after 2 days; conditions: COLO 205, 48 h
[1] = Cytotoxicity against human LOX cells after 2 days; conditions: 48 h
MOLT-4 = assay: Cytotoxicity against human MOLT4 cells after 2 days; conditions: MOLT-4, 48 h

SMILES: CSC[C@H](c1nccc2c1[nH]c1ccc(O)c(Br)c12)N(C)C
- IC50 (OVCAR-3): 0.98 µg/mL (≈ 2.58 µM)
- IC50 (COLO 205): 0.42 µg/mL (≈ 1.1 µM)
- IC50 [1]: 0.41 µg/mL (≈ 1.08 µM)
- IC50 (MOLT-4): 0.57 µg/mL (≈ 1.5 µM)

SMILES: C[n+]1ccc2c(c1)[nH]c1cc(Br)c(O)cc12.[Cl-]
- IC50 (OVCAR-3): 20 µg/mL
- IC50 (COLO 205): 15.1 µg/mL
- IC50 [1]: 15.1 µg/mL
- IC50 (MOLT-4): 17.5 µg/mL

SMILES: C[n+]1ccc2c(c1)[nH]c1ccc(O)c(Br)c12.[Cl-]
- IC50 (OVCAR-3): 20 µg/mL
- IC50 (COLO 205): 19.1 µg/mL
- IC50 [1]: 15 µg/mL
- IC50 (MOLT-4): 16.6 µg/mL
